Measured values as given in patent publication US10011570B2, “Nucleic acid binding dyes with improved safety” (Biotium, Inc., priority 2013, dated 2018).

Legend:
[1] = test system: 1 kb DNA ladder in 1% agarose gel; experiment: Post staining of agarose gels; conditions: 0.65 uM dye in water, 30 minutes, 1 kb DNA ladder 200-25 ng per lane
Protocol: Two-fold dilutions of 1 kb DNA ladder (Biotium, 200 ng-25 ng) or low-molecular weight DNA ladder (NEB, 50-12.5 ng/lane) were separated on 1% agarose/1×TBE gels in 1× TBE at 110 V for 90 minutes. Gels were post-stained with dyes at indicated concentrations in 50 mL staining solution with rocking for 30 minutes at room temperature, protected from light. The staining solutions were prepared by adding a dye stock solution in DMSO to water. […] In particular, dyes of the invention can readily penetrate dense polyacrylamide gels. […] Use of low dye concentration in the staining, coupled with the dyes' low cell membrane permeability (See below), makes the dyes safer to handle. Compound 25 of U.S. Pat. No. 7,446,202 is an asymmetric cyanine dye comprising a negatively charged substituent. The dye is described to be a sensitive dsDNA binding dye useful for selective dsDNA quantitation in solution. In this experiment, this dye is compared with the asymmetric cyanine dye Dye No. 4 of the present invention in detecting dsDNA in agarose gel. 1 kb DNA ladder (Biotium) was loaded on a 1% agarose/1×TBE gel at 200, 100, 50, or 25 ng per lane in duplicate and separated by electrophoresis at 100V. […]

Calf Thymus DNA; RNA = experiment: Nucleic acid detection in solution (fluorescence titration); assay type: binding; conditions: 2 uM Dye No. 4 or 1.3 uM Compound 25 in TE buffer, fluorescence microplate reader
Protocol: Compound 25 of U.S. Pat. No. 7,446,202 and Dye No. 4 were compared in nucleic acid detection in solution. Calf Thymus DNA (Sigma) was used to titrate 2 uM Dye No. 4 or 1.3 uM Compound 25 of U.S. Pat. No. 7,446,202 in TE buffer. The fluorescence of the solution was measured on a fluorescence microplate reader (200 uL volume/well and 5 minutes incubation time). Same optical setting was used for both dyes as the two dyes have nearly identical spectral profile.

HeLa cells = experiment: Live cell staining (cell membrane permeability, confocal microscopy); assay type: cell-based, human; conditions: for cell staining after 5 minutes incubation / cell staining after 30 minutes incubation: HeLa cells, 37 C, dyes at 0.65 uM, Sybr Safe at 1×; for cellular staining of live cells (cell membrane permeability): normal working concentration used in gel staining, time not stated (FIG. 12)
Protocol: Dye No. 4, Dye No. […] and SYBR Safe are tested for their cell membrane permeability. HeLa cells were incubated with 1× Sybr Safe, 0.65 uM Dye No 4 and 0.65 uM Dye No. 11 in cell culture medium at 37 C. Hoechst 33342 (1 ug/mL) was included to stain DNA with blue fluorescence. Cells were imaged after 5 minutes and 30 minutes incubation on the appropriate fluorescence channel (FITC for Sybr Safe and Dye No. 4, and Cy3 for Dye No. […]) on a Zeiss LSM 700 confocal microscope. […] Hoechst staining for the same microscopic field is shown below each image (D-F, J-L).

[2] = California Title 22 toxicity test for hazardous waste characterization; assay type: in vivo, Pimephales promelas; conditions: Pimephales promelas (fathead minnow), in vivo; 0.65 uM dye solution in water tested at 750, 500 and 250 mg/L, Fathead minnow; read-out: median lethal concentration (LC50)
Protocol: (§1) Stock solutions of Dye No. 11 and Dye No. 4 at 0.65 uM each in water were submitted to Nautilus Environmental (San Diego, Calif.) for California Title 22 toxicity testing for hazardous waste characterization. The solutions were tested at 750, 500, and 250 mg/L plus lab control in Pimephales promelas (Fathead minnow) in two replicates of 10 fish each according to the California Department of Fish and Game 1988 Acute Procedures.

[3] = test system: Pimephales promelas (Fathead minnow); experiment: as above; assay type: in vivo; conditions: 0.65 uM dye solution in water, aquatic life
Protocol: as §1

[4] = test system: 1 kb DNA ladder in 1% agarose TBE gels; experiment: Prestaining of agarose gels; conditions: dye mixed with DNA in loading buffer, compared with propidium iodide
Protocol: Two-fold dilutions of 1 kb DNA ladder (200 ng-25 ng per lane) were mixed with propidium iodide (PI) or Dye No, 10 in DNA loading buffer at the final concentrations indicated and separated on 1% agarose TBE gels containing no additional DNA dye.

C[n+]1c(C=C2C=CN(CCCSCC(N)C(=O)[O-])c3ccccc32)sc2ccccc21.I (stereo not shown) [Dye No. 4]
signal of stained gel compared with Compound 25 [1]: significantly higher signal
nucleic acid binding profile (dsDNA versus RNA) (Calf Thymus DNA; RNA): binds to both dsDNA and RNA
cell staining after 5 minutes incubation (HeLa cells): no staining was detectable
cell staining after 30 minutes incubation (HeLa cells): no staining was detectable
cellular staining of live cells (cell membrane permeability) (HeLa cells): did not produce any cellular staining at all
LC50 [2]: > 750 µg/mL
classification under CCR Title 22 regulations [3]: non-hazardous

CC[N+](C)(CC)CCC[n+]1c(-c2ccc(S(=O)(=O)[O-])cc2)c2cc(N)ccc2c2ccc(N)cc21.[I-] [Dye No. 10]
brightness in prestaining of gels [4]: as bright as PI

C[N+](C)(C)CCC[n+]1c(-c2ccc(S(=O)(=O)[O-])cc2)c2cc(N)ccc2c2ccc(N)cc21.[I-] [Dye No. 11]
cell staining after 5 minutes incubation (HeLa cells): no staining was detectable
cell staining after 30 minutes incubation (HeLa cells): no staining was detectable
cellular staining of live cells (cell membrane permeability) (HeLa cells): did not produce any cellular staining at all
LC50 [2]: > 750 µg/mL
classification under CCR Title 22 regulations [3]: non-hazardous
